Reference: patent US11091494B2, “Crystal form of acalabrutinib and preparation method and use thereof” (Crystal Pharmaceutical (Suzhou) Co., Ltd., priority 2018, dated 2021)

Key:
[1] = Hygroscopicity by dynamic vapor sorption (DVS); format: physicochemical; conditions: 80% RH, 25° C.; for Hygroscopicity: Chinese Pharmacopoeia 2015 definition; for Weight gain: DVS
Protocol: Dynamic vapor sorption (DVS) was applied to test hygroscopicity of Form A with about 10 mg of sample. Weight changes at each relative humidity were recorded in a cycle of 0-95%-0 RH at 25° C.±1° C.
(§1) Description and definition of hygroscopicity (general notice 9103 drug hygroscopicity test guidelines in 2015 edition of Chinese Pharmacopoeia, test at 25° C.+/−1° C., 80% RH). • deliquescent: Sufficient water is absorbed to form a liquid; • very hygroscopic: Increase in mass is equal to or greater than 15 percent; • hygroscopic: Increase in mass is less than 15 percent and equal to or greater than 2 percent; • slightly hygroscopic: Increase in mass is less than 2 percent and equal to or greater than 0.2 percent. • non hygroscopic or almost non hygroscopic: Increase in mass is less than 0.2%.
(§2) Dynamic vapor sorption (DVS) was applied to test hygroscopicity of Form F with about 10 mg of sample. Weight changes at each relative humidity were recorded in a cycle of 0-95%-0 RH at 25° C.±1° C. DVS plot is substantially as depicted in FIG. 32, and XRPD patterns before and after DVS are compared in FIG. 33.
as §1, with “C. +/−1°” for “C.+/−1°”
as §2, with “Form CS15” for “Form F”, “FIG. 38,” for “FIG. 32,”, “FIG. 39.” for “FIG. 33.”

[2] = Intrinsic dissolution rate in pH 2.5 HCl/NaCl aqueous solution; format: physicochemical; conditions: for Cumulative dissolution / IDR (intrinsic dissolution rate): pH 2.5 HCl/NaCl, 37° C.; for Cumulative dissolution: 0.5 cm^2 pellet; for IDR relative to that of Form I in WO2017002095A1: pH 2.5 HCl/NaCl solution; for IDR (intrinsic dissolution rate): slope over 0-45 minutes
Protocol: (§3) Approximately 200 mg of Form A and Form I in WO2017002095A1 were added into the die, compressed at 10 kN and held for 1 minute to obtain a pellet having a surface area of 0.5 cm^2. The whole tool with the pellet was transferred to a dissolution apparatus to test the intrinsic dissolution rate. The slope (mg/min) was calculated according to the data within 0-45 minutes. Intrinsic dissolution rate (IDR, mg/min/cm^2) was further calculated according to the slope.
as §3, with “Form D” for “Form A”
as §3, with “Form F” for “Form A”, “intrinsic dissolution.” for “intrinsic dissolution rate.”
as §3, with “Form G” for “Form A”, “intrinsic dissolution.” for “intrinsic dissolution rate.”
as §3, with “Form CS15” for “Form A”, “intrinsic dissolution.” for “intrinsic dissolution rate.”

Weight gain [1] [%] | Cumulative dissolution ([2]; 0 min) [mg] | Cumulative dissolution ([2]; 5 min) [mg] | Cumulative dissolution ([2]; 10 min) [mg] | Cumulative dissolution ([2]; 15 min) [mg] | Cumulative dissolution ([2]; 20 min) [mg] | Cumulative dissolution ([2]; 25 min) [mg] | Cumulative dissolution ([2]; 30 min) [mg] | Cumulative dissolution ([2]; 35 min) [mg] | Cumulative dissolution ([2]; 45 min) [mg] | IDR relative to that of Form I in WO2017002095A1 [2] [times] | IDR (intrinsic dissolution rate) [2] [mg/min/cm^2] | Compound | Hygroscopicity [1]
0.99 | 0.00 | 1.13 | 2.42 | 3.80 | 4.73 | 5.79 | 6.72 | 7.83 | 9.93 | 1.2 | 0.4520 | CC#CC(=O)N1CCC[C@H]1c1nc(-c2ccc(C(=O)Nc3ccccn3)cc2)c2c(N)nccn12 [Form A, (S)-4-(8-amino-3-(1-(but-2-ynoyl)pyrrolidin-2-yl)imidazo[1,5-a]pyrazin-1-yl)-N-(pyridin-2-yl)benzamide] | slightly hygroscopic (Increase in mass is less than 2 percent and equal to or greater than 0.2 percent)
1.78 | 0.00 | 1.06 | 2.34 | 4.20 | 5.60 | 7.89 | 8.86 | 10.60 | 12.41 | 1.6 | 0.5778 | CC#CC(=O)N1CCC[C@H]1c1nc(-c2ccc(C(=O)Nc3ccccn3)cc2)c2c(N)nccn12 [Form CS15, (S)-4-(8-amino-3-(1-(but-2-ynoyl)pyrrolidin-2-yl)imidazo[1,5-a]pyrazin-1-yl)-N-(pyridin-2-yl)benzamide] | slightly hygroscopic (Increase in mass is less than 2 percent and equal to or greater than 0.2 percent)
0.09 | 0.00 | 1.31 | 2.47 | 3.99 | 5.30 | 6.50 | 7.26 | 8.74 | 10.44 | 1.3 | 0.4898 | CC#CC(=O)N1CCC[C@H]1c1nc(-c2ccc(C(=O)Nc3ccccn3)cc2)c2c(N)nccn12 [Form F, (S)-4-(8-amino-3-(1-(but-2-ynoyl)pyrrolidin-2-yl)imidazo[1,5-a]pyrazin-1-yl)-N-(pyridin-2-yl)benzamide] | non hygroscopic or almost non hygroscopic (Increase in mass is less than 0.2%)
 | 0.00 | 1.28 | 2.36 | 3.68 | 4.76 | 5.51 | 6.71 | 7.65 | 9.50 | 1.2 | 0.4396 | CC#CC(=O)N1CCC[C@H]1c1nc(-c2ccc(C(=O)Nc3ccccn3)cc2)c2c(N)nccn12 [Form G, (S)-4-(8-amino-3-(1-(but-2-ynoyl)pyrrolidin-2-yl)imidazo[1,5-a]pyrazin-1-yl)-N-(pyridin-2-yl)benzamide] | 
